Results reported in patent US4551460A, “Pyrido[2,1-b]quinazoline derivatives useful as agents for treatment of allergic conditions and vascular disorders involving thrombosis” (priority 1983, dated 1985).

How the values were obtained:
[1] = tested on: histamine-induced constriction in guinea pig ilea; test: Antagonism of histamine-induced constriction in guinea pig ilea; conditions: 1×10^-7 M histamine
Method: (f) Antagonism of Histamine-induced Constriction in Guinea Pig Ilea
Antihistaminic activity was determined on a segment of guinea pig ileum that was suspended in a 37° C. bath of oxygenated Tyrodes solution. At 4 minute intervals, the ileum was challenged with 1×10^-7 M histamine for sufficient time to produce a peak contraction and then washed with fresh Tyrodes solution. After the tissue response to histamine had stabilized, the ileum was pretreated with the standard antihistaminic compound, pyrilamine maleate, for 1 minute prior to rechallenge with histamine, the contraction recorded, and the tissue washed with Tyrodes solution. […] By the IC50 for pyrilamine maleate in the test system was 1×10^-8 M. IC50 's for test drugs were determined by this same procedure.

[2] = tested on: histamine-induced bronchoconstriction; test: Antagonism of histamine-induced bronchoconstriction in guinea pigs; type: in vivo, guinea pig (Hartley strain); conditions: Cavia porcellus, po, 2 hour pretreatment; read-out: ID50 antagonism of histamine-induced bronchoconstriction
Method: (g) Antagonism of PAF and Histamine-induced Bronchoconstriction in Guinea Pig
Spontaneously breathing male guinea pigs (Hartley strain) weighing 300-450 grams are dosed orally with test drug or control vehicle two hours prior to challenge with agonist. The animals are anesthetized with urethane (2 gm/kg) intraperitoneally and the jugular vein and trachea are cannulated. Two hours after dosing, the animal is paralyzed with succinylcholine (1.2 mg/kg, i.v.) and ventilated (Harvard rodent respirator) at 40 breaths/minutes and 2.5 cc tidal volume. Propranolol (0.1 mg/kg, i.v.) is administered and five minutes thereafter the animal is challenged with a constrictory dose of platelet activating factor (10 μg/kg, i.v.) or histamine dihydrochloride (20 μg/kg, i.v.). The change (cm H2 O) between pre and peak ventilatory pressure readings is averaged for three control animals and five drug treated animals. The percent inhibition is calculated from the following formula: (Control-Drug Treated/Control)×100.

PAF induced mortality = test: Prevention of mortality induced by platelet aggregating factor (PAF); type: in vivo, mice (CF1); conditions: PAF 0.10 mg/kg i.v.
Method: (k) Prevention of Mortality Induced by Platelet Aggregating Factor (PAF)
Male CF1 mice weighing 20-30 gms (Carworth Farms Co.) are fed ad libitum.
Racemic 2-[[[2-(acetyloxy)-3-(octadecyloxy)propoxy]hydroxyphosphinyl]oxy]-N,N,N-trimethylethanaminium hydroxide inner salt hemihydrate (PAF) is concentrated in ethanol at a concentration of 1 mg/ml.At the time of experimentation, PAF is diluted in 0.1% BSA (bovine serum albumin) and administered intravenously at a dose of 0.10 mg/kg one hour after 10 mice are dosed with either vehicle (BSA) or drug. Mortality in mice treated with PAF occurs within 30 minutes after i.v. administration.

Compound | IC50 [1] | ED50 [2] | ED50 (PAF induced mortality; Mus musculus, Platelet, oral, read-out: oral ID50 (Inhibiting Dose), PAF induced mortality) | prevention of PAF induced mortality (PAF induced mortality)
CC(C)c1ccc2nc3ccc(C(=O)NCCCCn4ccnc4)cn3c(=O)c2c1 [Compound A, N-[4-(1H-imidazol-1-yl)butyl]-2-(1-methylethyl)-11-oxo-11H-pyrido[2,1-b]quinazoline-8-carboxamide] | 1 µM | 39 mg/kg | – | –
CC(C)c1ccc2nc3ccc(C(=O)NCCCCc4cccnc4)cn3c(=O)c2c1 [Compound B, 2-(1-methylethyl)-N-[4-(3-pyridyl)butyl]-11-oxo-11H-pyrido[2,1-b]quinazoline-8-carboxamide] | 2 µM | – | – | –
CC(C)c1ccc2nc3ccc(C(=O)NCCCCCCc4cccnc4)cn3c(=O)c2c1 [Compound C, 2-(1-Methylethyl)-N-[6-(3-pyridyl)hexyl]-11-oxo-11H-pyrido[2,1-b]quinazoline-8-carboxamide] | – | – | 13 mg/kg | prevented PAF induced mortality
